Measured values as given in ChEMBL document CHEMBL5241125, “Overcoming intrinsic resistance in gram-negative bacteria using small molecule adjuvants” (Bioorg Med Chem Lett, 2023).
Where a SMILES comes first, the peptide text is derived from it. Bridges are numbered along the chain shown (N, C = ends). [ ]: non-standard residue; d: D form. Dab = NCC[C@H](N)C(=O)O

Assays:
Acinetobacter baumannii [1] = assay: Antibacterial adjuvant activity against Acinetobacter baumannii AB5075 assessed as decrease in clarithromycin MIC at 30 uM incubated for 16 hrs in presence of clarithromycin by broth microdilution method; assay type: functional
Acinetobacter baumannii [2] = assay: Antibacterial adjuvant activity against Acinetobacter baumannii AB5075 assessed as decrease in clarithromycin MIC at 10 uM incubated for 16 hrs in presence of clarithromycin by broth microdilution method; assay type: functional
Acinetobacter baumannii [3] = assay: Antibacterial adjuvant activity against Acinetobacter baumannii AB5075 assessed as decrease in vancomycin MIC at 30 uM incubated for 16 hrs in presence of vancomycin by broth microdilution method; assay type: functional
Escherichia coli [4] = assay: Antibacterial activity against Escherichia coli IH3080 assessed as reduction in bacterial growth by measuring fold change incubated for 18 hrs by spectrophotometry; assay type: functional
Salmonella typhimurium [5] = assay: Antibacterial activity against Salmonella typhimurium SH5014 assessed as reduction in bacterial growth by measuring fold change incubated for 18 hrs by spectrophotometry; assay type: functional, Salmonella enterica subsp. enterica serovar Typhimurium
Escherichia coli [6] = assay: Antibacterial activity against Escherichia coli IH3080 assessed as reduction in bacterial growth by measuring fold change at 3 ug/ml incubated for 18 hrs by spectrophotometry; assay type: functional; conditions: dose 3 µg/ml
Salmonella typhimurium [7] = assay: Antibacterial activity against Salmonella typhimurium SH5014 assessed as reduction in bacterial growth by measuring fold change at 3 ug/ml incubated for 18 hrs by spectrophotometry; assay type: functional, Salmonella enterica subsp. enterica serovar Typhimurium; conditions: dose 3 µg/ml
Pseudomonas aeruginosa [8] = assay: Antibacterial adjuvant activity against Pseudomonas aeruginosa PAO1 assessed as decrease in azithromycin MIC at 60 uM incubated for 16 hrs in presence of azithromycin by broth microdilution method; assay type: functional
Pseudomonas aeruginosa [9] = assay: Antibacterial adjuvant activity against Pseudomonas aeruginosa PAO1 assessed as decrease in azithromycin MIC at 40 uM incubated for 16 hrs in presence of azithromycin by broth microdilution method; assay type: functional
Acinetobacter baumannii [10] = assay: Synergistic antibacterial activity against colistin-sensitive Acinetobacter baumannii ATCC 17978 infected in C57BL/6 mouse assessed as increase in survival rate at 5 mg/kg,po administered in presence of pentamidine for 7 days; assay type: functional; conditions: ATCC 17978, 168 h, time 7 day
Acinetobacter baumannii [11] = assay: Synergistic antibacterial activity against colistin-resistant Acinetobacter baumannii ATCC 17978 infected in C57BL/6 mouse assessed as increase in survival rate at 50 mg/kg,po administered in presence of pentamidine for 7 days; assay type: functional; conditions: ATCC 17978, 168 h, time 7 day
Acinetobacter baumannii [12] = assay: Synergistic antibacterial activity against colistin-sensitive Acinetobacter baumannii ATCC 17978 infected in C57BL/6 mouse assessed as increase in survival rate at 10 mg/kg,po administered in presence of novobiocin for 7 days; assay type: functional; conditions: ATCC 17978, 168 h, time 7 day
[13] = Binding affinity to Escherichia coli Lipid A assessed as dissociation constant
Acinetobacter baumannii [14] = assay: Synergistic antibacterial activity against colistin-resistant Acinetobacter baumannii ATCC 17978 infected in C57BL/6 mouse assessed as increase in survival rate at 10 mg/kg,po administered in presence of novobiocin for 7 days; assay type: functional; conditions: ATCC 17978, 168 h, time 7 day
Acinetobacter baumannii [15] = assay: Synergistic antibacterial activity against Acinetobacter baumannii infected in mouse assessed as increase in survival rate at 5 mg/kg,po administered bid in presence of SPR741 for 3 days; assay type: functional; conditions: 72 h, time 3 day
Acinetobacter baumannii [16] = assay: Synergistic antibacterial activity against Acinetobacter baumannii infected in mouse assessed as reduction of bacterial burden in lung at 5 mg/kg,po administered bid in presence of SPR741 for 3 days; assay type: functional; conditions: time 3 day
Acinetobacter baumannii [17] = assay: Antibacterial activity against Acinetobacter baumannii infected in mouse assessed as increase in survival rate at 5 mg/kg,po administered bid for 3 days; assay type: functional; conditions: 72 h, time 3 day
Acinetobacter baumannii [18] = assay: Antibacterial activity against Acinetobacter baumannii infected in mouse assessed as reduction of bacterial burden in lung at 5 mg/kg,po administered bid for 3 days; assay type: functional; conditions: time 3 day
Acinetobacter baumannii [19] = assay: Synergistic antibacterial activity against Acinetobacter baumannii infected in mouse assessed as increase in survival rate at 60 mg/kg,po administered bid in presence of rifampin for 3 days; assay type: functional; conditions: 72 h, time 3 day
Acinetobacter baumannii [20] = assay: Synergistic antibacterial activity against Acinetobacter baumannii infected in mouse assessed as reduction of bacterial burden in lung at 60 mg/kg,po administered bid in presence of rifampin for 3 days; assay type: functional; conditions: time 3 day

Nc1nc(-c2ccc(NC(=O)c3cc(Cl)cc(Cl)c3)cc2)c[nH]1
MIC (Acinetobacter baumannii [1]): 0.25 µg/mL | MIC (Acinetobacter baumannii [2]): 2 µg/mL | MIC (Acinetobacter baumannii [3]): 1 µg/mL

Nc1ncc(-c2ccc(NC(=O)c3cc(Br)cc(Br)c3)cc2)[nH]1
MIC (Acinetobacter baumannii [1]): 0.25 µg/mL | MIC (Acinetobacter baumannii [2]): 2 µg/mL | MIC (Acinetobacter baumannii [3]): 1 µg/mL

CC(C)C[C@@H]1NC(=O)[C@@H](Cc2ccccc2)NC(=O)[C@H](CCN)NC(=O)[C@@H](NC(=O)[C@H](CCN)NC(=O)[C@@H](NC(=O)[C@@H](N)CCN)[C@H](C)O)CCNC(=O)[C@H]([C@@H](C)O)NC(=O)[C@H](CCN)NC(=O)[C@H](CCN)NC1=O
fold change (FC) (Escherichia coli [4]): 300 | fold change (FC) (Salmonella typhimurium [5]): 300

CC(C)C[C@@H]1NC(=O)[C@@H](Cc2ccccc2)NC(=O)[C@H](CCN)NC(=O)[C@@H](NC(=O)[C@H](CCN)NC(=O)[C@@H](N)[C@H](C)O)CCNC(=O)[C@H]([C@@H](C)O)NC(=O)[C@H](CCN)NC(=O)[C@H](CCN)NC1=O
fold change (FC) (Escherichia coli [6]): 10 | fold change (FC) (Salmonella typhimurium [7]): 10

NCCCC(c1c[nH]c(N)n1)c1cnc(N)[nH]1
MIC (Pseudomonas aeruginosa [8]): 0.25 µg/mL | MIC (Pseudomonas aeruginosa [9]): 1 µg/mL

CC(C)C[C@@H]1NC(=O)[C@@H](CC(C)C)NC(=O)[C@H](CCN)NC(=O)[C@@H](NC(=O)[C@H](CCN)NC(=O)[C@@H](NC(=O)[C@@H](N)CCN)[C@H](C)O)CCNC(=O)[C@H]([C@@H](C)O)NC(=O)[C@H](CCN)NC(=O)[C@H](CCN)NC1=O
fold change (FC) (Escherichia coli [4]): 300 | fold change (FC) (Salmonella typhimurium [5]): 300

CO[C@@H]1[C@@H](OC(N)=O)[C@@H](O)[C@H](Oc2ccc3c(O)c(NC(=O)c4ccc(O)c(CC=C(C)C)c4)c(=O)oc3c2C)OC1(C)C [NOVOBIOCIN]
survival at 5 mg/kg (Acinetobacter baumannii [10]): 100% | survival at 50 mg/kg (Acinetobacter baumannii [11]): 90%

N=C(N)c1ccc(OCCCCCOc2ccc(C(=N)N)cc2)cc1 [PENTAMIDINE]
survival at 10 mg/kg (Acinetobacter baumannii [12]): 100% | Kd [13]: 120 nM | survival at 10 mg/kg (Acinetobacter baumannii [14]): 90%

CO[C@H]1/C=C/O[C@@]2(C)Oc3c(C)c(O)c4c(O)c(c(/C=N/N5CCN(C)CC5)c(O)c4c3C2=O)NC(=O)/C(C)=C\C=C\[C@H](C)[C@H](O)[C@@H](C)[C@@H](O)[C@@H](C)[C@H](OC(C)=O)[C@@H]1C [RIFAMPIN]
survival at 5 mg/kg (Acinetobacter baumannii [15]): 90% | Activity (Acinetobacter baumannii [16]): 6 log10CFU/g | survival at 5 mg/kg (Acinetobacter baumannii [17]): 50% | Activity (Acinetobacter baumannii [18]): 2 log10CFU/g

CC(=O)N[C@H](C(=O)N[C@H](CO)C(=O)N[C@H]1CCNC(=O)[C@H]([C@@H](C)O)NC(=O)[C@H](CCN)NC(=O)[C@H](CCN)NC(=O)[C@H](CC(C)C)NC(=O)[C@@H](Cc2ccccc2)NC(=O)[C@H](CCN)NC1=O)[C@@H](C)O [SPR-741] (Ac-T[dS][Dab][Dab][dF]L[Dab][Dab]T; lactam 3-C)
survival at 60 mg/kg (Acinetobacter baumannii [19]): 90% | Activity (Acinetobacter baumannii [20]): 6 log10CFU/g
